Test results reported in article PMC5618191 (Toxins, 2017).

System: CT-26-derived tumor allografts
Experiment: CT-26 allograft mouse model
Assay type: in vivo, BALB/c mice
Experimental: For the allograft experiment, 4 × 10^5 CT-26 cells were resuspended in 50 µL RPMI medium and injected subcutaneously into the right flank of eight, 6–8 weeks old, male BALB/c mice that were obtained from Harlan Laboratories (San Pietro al Natisone, Italy). Likewise, in the xenograft experiment, 1 × 10^6 KB-3-1 cells in 50 µL RPMI medium were injected subcutaneously into the right flank of eight, 6–8 weeks old, male CB-17/IcrHanHsd-Prkdc severe combined immunodeficiency (SCID) mice. Of each group, four animals were randomly assigned to the control or to the treatment group. […] All animals were kept under pathogen-free conditions and all procedures were performed in a laminar flow hood. Effects of the treatment were assessed by daily recording of tumor size with a microcaliper and parameters indicating the animals’ overall health condition (e.g., body weight, fatigue, grooming, ragged coat, food and fluid consumption). Tumor volumes (mm^3) were calculated using the formula: (length × width^2)/2. […] The tumor mass was weighed and organs and tissues for immunohistochemical experiments were fixed in 4% formalin/PBS (Roti®-Histofix 4%, Roth, Karlsruhe, Germany) or shock-frozen in liquid nitrogen and stored at −80 °C until the samples were prepared for LC-MS/MS analysis. The experiments were approved by the ethics committee of the Austrian Federal Ministry of Science, Research, and Economy (BMWF-66.009/0084-II/3b/2013, date of approval: 5 September 2013) and performed in line with the Arrive guidelines for animal care and protection and with guidelines from the Austrian Animal Science Association and from the Federation of European Laboratory Animal Science Associations (FELASA).
From each mouse from both the control (n = 4) and the treatment group (n = 4), tissue samples were formalin-fixed, paraffin-embedded and used to prepare serial 3 µm sections. Then, slices were deparaffinized and rehydrated. To evaluate the percentages of interphase/resting, mitotic and dead (apoptotic/necrotic) cell fractions in tumor specimens, sections were stained with hematoxylin and eosin (H/E) by means of standard protocols. Numbers of the three cell fractions were analyzed in a blinded setup in at least four images of H/E-stained tumor sections, taken under a 40 × objective microscope lens. In addition, for the quantification of areas of dead tumor tissue in whole tumor sections, the H/E-stained slides were scanned with a Pannoramic MIDI automated slide scanner (3[…], Budapest, Hungary) and evaluated using Definiens’ TissueStudio® 4.0 (Definiens®, Munich, Germany) software and Pannoramic Viewer (3[…]) software. To evaluate the fraction of apoptotic cells in tumor sections a terminal deoxynucleotidyl transferase (TdT) deoxyuridine triphosphate (dUTP) nick end labeling (TUNEL) assay was performed applying the In Situ Cell Death Kit TMR (red) (Roche Diagnostics, Mannheim, Germany) according to the manufacturer’s protocol. Afterwards, slides were covered with Vectashield anti-fade mounting medium with DAPI (H-1200, Vector Laboratories, Burlingame, CA, USA). Slides were protected from light until they were scanned with a Pannoramic MIDI automated slide scanner (3[…]) and analyzed via digital image analysis software (Definiens’ TissueStudio® 4.0, Definiens®). In order to visualize the proliferative cell fraction (cells in the interphase or M-phase) of tumors, KB-3-1 tumor sections were stained with the Ki-67 (clone MiB-1) antibody from DAKO (1:100; Glostrup, Denmark) and for CT-26 tumor sections with Ki-67 (1:100; D3B5, rabbit, Cell Signaling, Danvers, USA). The primary antibody was incubated for 30 min at room temperature in a humid chamber and after rinsing the slides for 3 min in PBS + 0.1% Tween, the UltraVision LP detection system was applied according to the manufacturer’s instructions (Thermo Fisher Scientific, Massachusetts, MA, USA). Sections were counterstained with hematoxylin. […]

For beauvericin, the “Average tumor weight reduction” value (5 mg/kg bw/day i.p., day 14, vs untreated, p = 0.057) was 60%, the “Reduction of mean tumor volume” value (5 mg/kg bw/day i.p., two cycles, day 14, vs solvent control) was 52.8% and the “Higher rate of scattered cells with signs of cell death (apoptosis or necrosis) in viable tumor regions” value (H/E, treated vs control, p < 0.05) was 22%. For the same substance, the “Ki-67-positive (proliferating) tumor cells” value (treated group, tumor sections, control 66.9 ± […]) was 81.6 ± 3.7%, the “Mitotic cells in H/E-stained tumor sections” value (treated group, control 0.4 ± 0.1%) was 0.3 ± 0.2% and the “Increase of average apoptosis rate (TUNEL) in viable tumor areas” value (treated versus untreated, p = 0.065) was 2.1 fold. The “Increase of necrotic areas in H/E-stained whole tumor sections” value (treated vs control, p < 0.05) was 2.2 fold.
